The values below come from ChEMBL document CHEMBL2384919, “Identification of New Nonsteroidal RORα Ligands; Related Structure-Activity Relationships and Docking Studies” (ACS Med Chem Lett, 2013).

Molecules are shown by their SMILES. Activity calls are given as the source filed them. No cut-off for these calls is given here.

Assay [1] deals with T1, Nuclear receptor ROR-alpha (Homo sapiens) (UniProt P35398).
T1 sequence (whole entry): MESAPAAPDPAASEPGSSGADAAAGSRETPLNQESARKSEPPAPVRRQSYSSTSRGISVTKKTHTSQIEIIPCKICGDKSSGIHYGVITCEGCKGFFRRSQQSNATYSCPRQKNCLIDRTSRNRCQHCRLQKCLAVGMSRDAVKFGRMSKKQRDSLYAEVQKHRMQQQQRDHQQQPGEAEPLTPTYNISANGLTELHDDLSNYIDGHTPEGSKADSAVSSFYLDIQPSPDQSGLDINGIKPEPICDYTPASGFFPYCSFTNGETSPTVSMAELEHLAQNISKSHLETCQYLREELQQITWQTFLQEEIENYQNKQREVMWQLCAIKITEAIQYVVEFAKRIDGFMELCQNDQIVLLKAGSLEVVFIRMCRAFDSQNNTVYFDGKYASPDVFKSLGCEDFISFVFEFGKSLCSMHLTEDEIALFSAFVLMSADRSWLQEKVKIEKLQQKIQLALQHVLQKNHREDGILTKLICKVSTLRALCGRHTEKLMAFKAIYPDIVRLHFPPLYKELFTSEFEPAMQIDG
As to the kind of experiment: Partial agonist activity at GST-fussed RORalpha (unknown origin) assessed as recruitment of TIF2 mutant-BAP protein after overnight incubation by pull down assay.

Assay [2] deals with T2, Nuclear receptor ROR-alpha (Homo sapiens, UniProt P35398).
T2 sequence (P35398 whole entry): T1 sequence (whole entry)
The assay can be described thus: Partial agonist activity at GST-fussed RORalpha (unknown origin) assessed as recruitment of TIF2-BAP protein after overnight incubation by pull down assay.

Assay [3] addresses T1, Nuclear receptor ROR-alpha (Homo sapiens). As to the kind of experiment: Partial agonist activity at GST-fussed RORalpha (unknown origin) assessed as recruitment of TIF2-BAP protein after overnight incubation by pull down assay relative to 7DC.
The target is the same in assay [4]. As to the kind of experiment: Partial agonist activity at GST-fussed RORalpha (unknown origin) assessed as recruitment of TIF2-BAP protein at 30 uM after overnight incubation by pull down assay relative to 7DC.

By EC50 is commonly meant the concentration needed to bring the measured effect to its halfway point. A word on the Emax: it is the size of the effect at its maximum, as opposed to the concentration needed. As for `CCOC(=O)C1=C(C)NC(=O)N(C)C1c1ccc(OCc2ccccc2)c(OC)c1` (racemic), the result in assay [1] was inactive. Moreover, the EC50 in assay [2] is over 30 µM. In assay [3], the Emax came out at 19%.
On the same counts, the results for `COc1cc(C2NC(=O)NC(C)=C2C(=O)OCc2ccc3c(c2)OCO3)ccc1OCc1ccccc1` (racemic) are “inactive”, 12.5 µM and 70%.
On the same counts, the results for `CCOC(=O)C1=C(C)NC(=O)NC1c1ccc(OCCc2ccccc2)c(OC)c1` (racemic) are “inactive”, 20.3 µM and 36%.
Consider `COc1cc(C2NC(=O)NC(C)=C2C(C)=O)ccc1OCc1ccccc1` (racemic), for which the result in assay [1] and in assay [4] was inactive.
On to `CCOC(=O)C1=C(C)NC(=O)NC1c1ccc(OCCCc2ccccc2)c(OC)c1` (racemic), for which the result in assay [1] and in assay [4] was inactive.
Turning to `COc1cc(C2NC(=O)NC(C)=C2C(=O)OCCOC(C)C)ccc1OCc1ccccc1` (racemic), the result in assay [1] and in assay [4] was inactive.
Turning to `C=CCOC(=O)C1=C(C)NC(=O)NC1c1ccc(OCc2ccccc2)c(OC)c1` (racemic), the outcome in assay [1] was inactive. For the same molecule, the EC50 in assay [2] was 22.9 µM. The Emax in assay [3] was 76%.
On the same counts, the results for `COC(=O)C1=C(C)NC(=O)NC1c1ccc(OCc2ccccc2)c(OC)c1` (racemic) are “inactive”, 13.1 µM and 33%.
Regarding `COc1cc(C2NC(=O)NC(C)=C2C(C)=O)ccc1OCc1ccccc1Cl` (racemic), in assay [1], the outcome was inactive. Besides, the EC50 in assay [2] worked out at 28.2 µM. Also, the Emax in assay [3] was determined as 48%.
Take `COc1cc(C2NC(=O)NC(C)=C2C(=O)OCc2ccccc2)ccc1OCc1ccccc1` (racemic): the result in assay [1] was inactive. The EC50 in assay [2] is over 30 µM. Also, in assay [3], the Emax was determined as 44%.
With `COc1cc(C2NC(=O)NC(C)=C2C(N)=O)ccc1OCc1ccccc1` (racemic), the outcome in assay [1] and in assay [4] was inactive.
For the molecule `CCOC(=O)C1=C(C)N(C)C(=O)NC1c1ccc(OCc2ccccc2)c(OC)c1` (racemic), the outcome in assay [1] was inactive. In addition, the EC50 in assay [2] was over 19 µM. Also, in assay [3], the Emax is 29%.
With `COc1ccc(COC(=O)C2=C(C)NC(=O)NC2c2ccc(OCc3ccccc3)c(OC)c2)cc1` (racemic), the outcome in assay [1] was inactive. Besides, the EC50 in assay [2] came out at 10.9 µM. In assay [3], the Emax is 19%.
Regarding `CC1=C(C(=O)OCC(C)C)C(c2ccc(OCc3ccccc3)cc2)NC(=O)N1` (racemic), the outcome in assay [1] and in assay [4] was inactive.
Consider `CCOc1cc(C2NC(=O)NC(C)=C2C(C)=O)ccc1OCc1ccccc1Cl` (single isomer, unassigned; enantiomer 1) [listing 1 of 2 here], for which the result in assay [1] was inactive. Further, the Emax in assay [3] was 85%.
`CC1=C(C(=O)OCCOc2ccccc2)C(c2ccc(OCc3ccccc3)cc2)NC(=O)N1` (racemic): the EC50 in assay [2] came to 8.1 µM. For the same molecule, the Emax in assay [3] turned out to be 39%.
Take `CCOc1cc(C2NC(=O)NC(C)=C2C(C)=O)ccc1OCc1ccccc1Cl` (stereo in doubt; 1) [listing 1 of 2 here]: the outcome in assay [1] was inactive. In assay [3], the Emax came out at 88%.
Consider `COc1cc(C2NC(=O)NC(C)=C2C(=O)O)ccc1OCc1ccccc1` (racemic), for which the outcome in assay [1] and in assay [4] was inactive.
As to `CCCCOC(=O)C1=C(C)NC(=O)NC1c1ccc(OCc2ccccc2)c(OC)c1` (racemic), the outcome in assay [1] was inactive. For the same molecule, the EC50 in assay [2] is 14 µM. Further, the Emax in assay [3] stood at 58%.
As for `COc1cc(C2NC(=O)NC(C)=C2C(=O)NCc2ccccc2)ccc1OCc1ccccc1` (racemic), the result in assay [1] and in assay [4] was inactive.
Turning to `CC1=C(C(=O)Nc2ccccc2)C(c2ccc(OCc3ccccc3)cc2)NC(=O)N1` (racemic), the outcome in assay [1] and in assay [4] was inactive.
Turning to `CCOc1cc(C2NC(=O)NC(C)=C2C(C)=O)ccc1OCc1ccccc1Cl` (single isomer, unassigned; enantiomer 1) [listing 2 of 2 here], the EC50 in assay [2] was 10.9 µM.
On to `CCCOc1ccc(C2NC(=O)NC(C)=C2C(=O)OCC)cc1OC` (racemic), for which the result in assay [1] and in assay [4] was inactive.
Regarding `COc1cc(C2NC(=O)NC(C)=C2C(=O)OCC2CCCO2)ccc1OCc1ccccc1` (racemic), the result in assay [1] and in assay [4] was inactive.
As to `COc1cccc(COC(=O)C2=C(C)NC(=O)NC2c2ccc(OCc3ccccc3)c(OC)c2)c1` (racemic), the outcome in assay [1] was inactive. Also, the EC50 in assay [2] turned out to be 26.2 µM. Also, the Emax in assay [3] was 55%.
`CCOC(=O)C1=C(C)NC(=O)NC1c1cc(OC)c(OC)cc1Cl` (racemic): the result in assay [1] and in assay [4] was inactive.
On to `CCOC(=O)C1=C(C)NC(=O)NC1c1cc(OC)c(O)cc1Cl` (racemic), for which the outcome in assay [1] and in assay [4] was inactive.
Turning to `CCOc1cc(C2NC(=O)NC(C)=C2C(C)=O)ccc1OCc1ccccc1Cl` (single isomer, unassigned; enantiomer 2) [listing 1 of 2 here], the outcome in assay [1] was inactive. Also, the maximal effect (Emax) in assay [3] was over 41%.
As to `CCOC(=O)C1=C(C)NC(=O)NC1c1cc(OC)c(OCc2ccccc2Cl)cc1Cl` (racemic), in assay [2], the EC50 turned out to be 5.5 µM. Besides, the Emax in assay [3] is 55%.
Turning to `COc1ccc(COC(=O)C2=C(C)NC(=O)NC2c2ccc(OCc3ccccc3)c(OC)c2)cc1OC` (racemic), the outcome in assay [1] was inactive. The EC50 in assay [2] was 26.3 µM. Besides, in assay [3], the Emax was found to be 43%.
Take `CC1=C(C(=O)OCC(F)(F)F)C(c2ccc(OCc3ccccc3)cc2)NC(=O)N1` (racemic): in assay [1], the result was inactive. In assay [2], the EC50 was over 30 µM. In assay [3], the Emax stood at 12%.
On to `CCOc1cc(C2NC(=O)NC(C)=C2C(C)=O)ccc1OCc1ccccc1Cl` (stereo in doubt; 1) [listing 2 of 2 here], for which, in assay [2], the EC50 came to 12.7 µM.
As for `CCOC(=O)C1=C(C)NC(=O)NC1c1ccc(OCc2ccccc2)c(OC)c1` (racemic), the EC50 in assay [2] was determined as 8.9 µM. Besides, the Emax in assay [3] was determined as 56%.
With `CCOC(=O)C1=C(CC)NC(=O)NC1c1ccc(OCc2ccccc2)c(OC)c1` (racemic), the result in assay [1] was inactive. For the same molecule, the half-maximal effective concentration (EC50) in assay [2] was over 30 µM. For the same molecule, the Emax in assay [3] was over 45%.
On the same counts, the results for `CCOC(=O)C1=C(C)NC(=O)NC1c1ccc(OCc2ccccc2)cc1` (racemic) are “inactive”, 4.3 µM and 25%.
`COc1cc(C2NC(=O)NC(C)=C2C(=O)OCC2CCCCC2)ccc1OCc1ccccc1` (racemic): the outcome in assay [1] and in assay [4] was inactive.
Consider `COc1cc(C2NC(=O)NC(C)=C2C(=O)OCCc2ccccc2)ccc1OCc1ccccc1` (racemic), for which the result in assay [1] and in assay [4] was inactive.
As to `CCC(C)NC(=O)C1=C(C)NC(=O)NC1c1ccc(OCc2ccccc2)cc1` (racemic), the result in assay [1] and in assay [4] was inactive.
With `CCOc1cc(C2NC(=O)NC(C)=C2C(C)=O)ccc1OCc1ccccc1Cl` (single isomer, unassigned; enantiomer 2) [listing 2 of 2 here], the EC50 in assay [2] is over 30 µM.
Regarding `COc1cc(C2NC(=O)NC(C)=C2C(=O)OCC(F)(F)F)ccc1OCc1ccccc1` (racemic), the outcome in assay [1] was inactive. In assay [2], the EC50 is over 30 µM. Besides, the Emax in assay [3] was determined as 80%.
On the same counts, the results for `COc1cc(C2NC(=O)NC(C)=C2C(=O)OCCSC)ccc1OCc1ccccc1` (racemic) are “inactive”, over 30 µM and 27%.
